# US20090312373A1, “METHODS FOR THE TREATMENT OF CANCER USING PIPERLONGUMINE AND PIPERLONGUMINE ANALOGS” (The General Hospital Corporation, priority 2008, published 2009)
# What was measured:
# [1] = system: CDIP promoter containing p53 binding site; assay: CDIP promoter/p53 responsive site luciferase reporter screen; assay type: cell-based, human
# Description: We screened a small molecule library of biologically active compounds using a Luciferase reporter gene construct fused with CDIP (Cell Death Involved p53 target) promoter/p53 responsive site as a read-out assay. p53 transcriptional activators were identified from screening the diversity set of the biologically active library using U2OS human cancer cells expressing the p53-responsive reporter. Briefly, a reporter construct was created that included the CDIP promoter operatively linked to the luc2 luciferase reporter gene. We stably expressed a human p53 reporter, luciferase2/Puro+CDIP promoter, which carries the firefly luciferase gene under the control of p53-responsive elements of CDIP promoter, in U2OS cells. Stable cell lines were produced that expressed the reporter construct, and the cells were plated in 384 well plates at ˜10,000 cells per well. Test compounds were added to the plated cells at two replicates per compound, and the cells were incubated with the compounds for 24 hours. The data were analyzed using Spotfire. The initial screen identified several compounds that activated p53-responsive reporter expression during 48 hours.
# p53 [2] = assay: Western blot of p53 and p53 target expression in human cancer cells; assay type: cell-based
# Description: Thus, piperlongumine is a p53 activator as well as an activator for proapoptotic targets.
# [3] = system: mouse B16-F10 melanoma cells; assay: B16-F10 mouse melanoma in B6 wild type mice; assay type: in vivo; settings: 28 ug i.p. every 48 hours for 12 days (total 1.2 mg/kg); compared to DMSO
# Experimental: We tested the effectiveness of piperlongumine in wild type mice using mouse B16-F10 melanoma cells. A total 2×10^6 cells were implanted subcutaneously on opposite site flanks in each of 12 B6 wild type mice in each group. When tumor masses grew to ˜5-10 mm in diameter, piperlongumine was administered intraperitoneally (28 ug per each intraperitoneal administration, total 1.2 mg/kg) every 48 hours for 12 days (6 times total).
# p53 [4] = assay: p53 acetylation Western blot in U2OS cells; assay type: cell-based, human; settings: 6 hours
# Experimental: U2OS cells were treated with piperlongumine (SP), the HDAC inhibitor TSA (trichostatin A ([…])) or the control DMSO for 6 hours. Cell extracts were fractionated in SDS-PAGE gel and analyzed by western blot.
# Twist = Twist expression in U2OS and EJ cells; assay type: cell-based, human; settings: 10 μM, 6 and 12 hours
# Experimental: U2OS cells and EJ cells were exposed to piperlongumine (10 μM) and aliquots of the cells were taken at 6 and 12 hours and lysed to determine the level of Twist expression. […] HCT116 cells (p53-wt cells) were exposed to piperlongumine and aliquots of the cells were taken at 6 and 12 hours and lysed to determine the level of CDIP expression. […] U2OS cells (p53-wt cells) and EJ cells (non-functional p53) were exposed to various concentrations of piperlongumine (piper) and aliquots of the cells were lysed to determine the level of survival protein expression.
# MMTV-PyVT mammary tumor = assay: MMTV-PyVT spontaneous mammary tumor mouse model; assay type: in vivo
# Description: MMTV-PvVT (FVB/N-Tg) transgenic mice develop multifocal mammary tumor (from hyperplasia to metastatic) with a high incidence of metastasis (Mice were obtained from the NCI repository). This mouse model has been widely used for the correlation studies of human cancer (Guy et al., Moll. Cell. Biol. 12: 954-961, 1992). In addition, this onco-mouse model has been used to evaluate the effectiveness of potential drug therapies. Generally, due to aggressiveness of tumor growth and spread in this mouse-model, only a combination of chemo-drugs is effective in tumor growth inhibition. MMTV-PyVT mice were maintained until mammary tumor size reached to 6 mm, and then piperlongumine (2.4 mg/kg) or vehicle (DMSO) was given daily by i.p. for 13 days. Tumor size was measured every 4 days (See FIGS. 31 and 32).
# We compared the anti-tumor activity of piperlongumine (SP2007) with taxol, a well known chemo drug, in the MMTV-PyVT tumor mouse model as described above (8 mice per group). When tumor sizes grew to ˜5-6 mm in diameter, SP2007 (2.4 mg/kg/day) or Taxol (Paclitaxel, 10 mg/kg/day) was administered intraperitoneally (I.P.) daily for two weeks. After two weeks treatment, mice were sacrificed, and mammary tumors excised and the tumor sizes measured. […] The size of the grossly dissected tumors was measured using the formula: mean diameter=(A+B)/2.
# Twist and N-cadherin = assay: Histological examination of Twist and N-cadherin in MMTV-PyVT mammary tumors; assay type: in vivo, mouse; settings: i.p. total 2.4 mg/kg daily for two weeks
# Experimental: A scheme for piperlongumine (SP2007)-mediated repression of Twist expression and its downstream targets that are involved in tumor invasion/metastasis is presented in FIG. 39A. […] U2OS and EJ cells were treated with SP2007 at two concentrations (10 μM and 20 μM) as well as with DMSO as a solvent control. After 20 hours, cell lysates were extracted and western blotting was performed against Twist, N-cadherin and p120 catenin (Zymed and Sigma Aldrich). […] Female MMTV-PyVT mice at 8-9 weeks age were chosen for the studies. When tumor sizes grew to ˜5-6 mm in diameter, SP2007 or DMSO was administered intraperitoneally (I.P., total 2.4 mg/kg of SP2007) daily for two weeks. After two weeks treatment, mice were sacrificed and mammary tumors excised and processed for histological examination.
# [5] = system: normal human breast epithelial cells; assay: DNA damage markers in normal human breast epithelial cells; assay type: cell-based; settings: SP2007 10 μM or 20 μM
# Description: The primary breast epithelial cells obtained from patients undergoing reconstructive plastic surgery.
# [6] = system: EJ bladder carcinoma and U2OS osteosarcoma cell lines; assay: DNA damage in EJ bladder carcinoma and U2OS osteosarcoma cell lines; assay type: cell-based, human
# Description: The conditions and time of exposure are indicated in the legend of the figure.
# [7] = Precipitation on dilution of DMSO solution; assay type: physicochemical; settings: diluted 1:10 in phosphate buffered saline or water
# Experimental: (§1) To avoid toxicity, piperlongumine should be used at less than 2.5 mg/kg in mice. The skilled person will know how to formulate the compounds of the invention in accordance with the solubility by selection of appropriate carriers, solubilizers, etc.
# Toxicity limit in mice = assay type: in vivo, mouse
# Experimental: as §1
# [8] = 2.4 mg/kg daily i.p. for 13 days
structure (smiles),measurement,setting,value
"COc1cc(/C=C/C(=O)N2CCC=CC2=O)cc(OC)c1OC [piperlongumine, N-(3,4,5,-trimethoxycinnamoyl)-Δ^3-piperidine-2-one]",luciferase activity of the CDIP promoter containing p53 binding site,"[1]; 10 μM, U2OS cells",significantly increased
same,composite Z value in the screen,"[1]; among natural compound candidates, U2OS reporter cells",highest composite Z value
same,Puma expression,p53 [2]; human cancer cells,significantly induced
same,p53 expression (Western blot),"p53 [2]; relatively low concentrations, U2OS and HCT116 human cancer cells",significantly induced
same,anti-tumor effect,[3],significant anti-tumor effects
same,amount of acetylated p53,p53 [4],increased the amount of acetylated p53 to a level similar to TSA treated cells
same,total amount of p53,p53 [4]; TSA 10 mM,did result in an increased
same,Twist expression,Twist,inhibits the expression of Twist
same,multiple tumor growth in spontaneous tumor model,MMTV-PyVT mammary tumor; [8],inhibits multiple tumor growth
same,tumor growth in spontaneous mouse model of breast cancer,MMTV-PyVT mammary tumor; [8],inhibits tumor growth
same,anti-tumor effect (mammary tumor size),"MMTV-PyVT mammary tumor; 2.4 mg/kg/day i.p. daily for two weeks, compared to DMSO",Significant anti-tumor effects
same,health of mice during treatment,MMTV-PyVT mammary tumor; SP2007 2.4 mg/kg/day i.p. for two weeks,remained healthy throughout the treatment time
same,secondary tumors,MMTV-PyVT mammary tumor; SP2007 2.4 mg/kg/day or Taxol 10 mg/kg/day i.p. for two weeks,No secondary tumors were observed
same,N-cadherin expression in mammary tumors,Twist and N-cadherin,inhibits N-cadherin expression
same,Twist expression in mammary tumors,Twist and N-cadherin,inhibits Twist expression
same,"phosphorylated gamma-H2AX, p53 and p21",[5],does not affect
same,DNA damage (phosphorylated gamma-H2AX levels),[6],results in the induction of DNA damage
same,concentration in DMSO that precipitated out when diluted 1:10,[7],more than 0.25 mg/ml
same,dose to avoid toxicity,Toxicity limit in mice,less than 2.5 mg/kg
